Test results taken from BindingDB's records for doi:10.1016/j.bmcl.2014.07.007 (Astrazeneca, 2014).

Key:
[1] = target: Phosphatidylinositol 4,5-bisphosphate 3-kinase catalytic subunit beta isoform (Homo sapiens, UniProt P42338); test: Inhibition of human recombinant PI3Kbeta assessed as PIP3 production by AlphaScreen assay
[2] = target: Phosphatidylinositol 4,5-bisphosphate 3-kinase catalytic subunit alpha isoform (Homo sapiens, UniProt P42336); test: Inhibition of human recombinant PI3Kalpha assessed as PIP3 production by AlphaScreen assay
Phosphatidylinositol 4,5-bisphosphate 3-kinase catalytic subunit alpha isoform, sequence (P42336 whole entry, canonical isoform): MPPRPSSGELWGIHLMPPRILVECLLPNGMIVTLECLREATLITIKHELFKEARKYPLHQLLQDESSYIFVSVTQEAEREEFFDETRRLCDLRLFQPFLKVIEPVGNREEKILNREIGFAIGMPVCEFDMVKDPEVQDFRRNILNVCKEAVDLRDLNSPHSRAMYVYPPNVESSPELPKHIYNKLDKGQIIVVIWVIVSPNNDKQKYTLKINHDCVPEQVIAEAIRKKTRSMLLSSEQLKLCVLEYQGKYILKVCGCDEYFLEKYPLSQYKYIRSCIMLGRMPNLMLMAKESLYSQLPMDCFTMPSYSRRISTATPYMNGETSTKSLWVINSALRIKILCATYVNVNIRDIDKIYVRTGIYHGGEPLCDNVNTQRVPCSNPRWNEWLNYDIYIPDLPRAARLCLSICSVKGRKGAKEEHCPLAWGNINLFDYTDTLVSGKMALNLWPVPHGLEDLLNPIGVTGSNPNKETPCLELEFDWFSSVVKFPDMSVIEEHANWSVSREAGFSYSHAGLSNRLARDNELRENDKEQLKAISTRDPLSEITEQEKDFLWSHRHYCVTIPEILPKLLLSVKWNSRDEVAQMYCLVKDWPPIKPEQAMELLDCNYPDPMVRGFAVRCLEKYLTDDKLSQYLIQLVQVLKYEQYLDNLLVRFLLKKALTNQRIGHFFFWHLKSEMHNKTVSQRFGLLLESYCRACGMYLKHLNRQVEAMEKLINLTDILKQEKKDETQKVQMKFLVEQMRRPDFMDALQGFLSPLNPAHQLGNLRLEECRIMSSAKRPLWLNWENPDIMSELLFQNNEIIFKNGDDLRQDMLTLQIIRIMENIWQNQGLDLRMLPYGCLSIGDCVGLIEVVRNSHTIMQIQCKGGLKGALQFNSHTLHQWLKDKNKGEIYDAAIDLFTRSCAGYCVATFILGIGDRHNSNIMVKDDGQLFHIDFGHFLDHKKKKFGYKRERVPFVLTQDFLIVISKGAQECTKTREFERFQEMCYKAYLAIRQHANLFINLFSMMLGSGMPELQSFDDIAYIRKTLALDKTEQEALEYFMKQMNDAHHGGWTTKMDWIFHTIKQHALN

Phosphatidylinositol 4,5-bisphosphate 3-kinase catalytic subunit beta isoform, sequence (P42338 whole entry, canonical isoform): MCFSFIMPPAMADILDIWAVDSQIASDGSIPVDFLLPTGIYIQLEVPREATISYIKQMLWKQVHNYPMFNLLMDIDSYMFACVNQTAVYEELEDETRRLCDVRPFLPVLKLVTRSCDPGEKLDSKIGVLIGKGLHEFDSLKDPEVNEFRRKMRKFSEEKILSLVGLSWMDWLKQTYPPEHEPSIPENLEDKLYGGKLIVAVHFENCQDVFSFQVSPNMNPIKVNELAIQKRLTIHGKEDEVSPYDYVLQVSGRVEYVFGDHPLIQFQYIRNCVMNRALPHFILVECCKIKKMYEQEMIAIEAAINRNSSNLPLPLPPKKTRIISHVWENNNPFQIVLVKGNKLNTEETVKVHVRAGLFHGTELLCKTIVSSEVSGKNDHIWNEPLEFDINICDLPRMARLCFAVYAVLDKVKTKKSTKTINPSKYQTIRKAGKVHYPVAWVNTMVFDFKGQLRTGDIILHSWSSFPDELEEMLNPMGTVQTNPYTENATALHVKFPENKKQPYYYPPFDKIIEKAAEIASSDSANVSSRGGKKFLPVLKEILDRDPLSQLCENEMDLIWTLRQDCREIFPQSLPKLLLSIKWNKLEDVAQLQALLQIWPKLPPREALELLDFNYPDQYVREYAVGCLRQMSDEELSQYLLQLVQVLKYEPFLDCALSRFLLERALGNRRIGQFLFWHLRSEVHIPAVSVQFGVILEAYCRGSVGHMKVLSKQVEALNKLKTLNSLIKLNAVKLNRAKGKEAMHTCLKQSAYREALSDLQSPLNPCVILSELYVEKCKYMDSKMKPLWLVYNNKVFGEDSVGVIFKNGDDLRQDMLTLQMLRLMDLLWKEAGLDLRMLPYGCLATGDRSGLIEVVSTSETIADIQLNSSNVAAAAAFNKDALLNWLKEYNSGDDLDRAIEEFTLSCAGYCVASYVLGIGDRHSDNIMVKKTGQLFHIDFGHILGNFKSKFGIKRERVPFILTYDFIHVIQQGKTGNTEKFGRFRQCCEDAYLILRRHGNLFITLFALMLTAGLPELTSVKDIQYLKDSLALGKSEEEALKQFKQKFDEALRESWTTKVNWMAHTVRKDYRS

Row | SMILES | IC50 [1] | IC50 [2]
1 | CC(Nc1ccccc1)c1cc(C(=O)N(C)C)cn2c(=O)cc(N3CCOCC3)nc12 (centres undefined) | 68 nM | 2500 nM
2 | CC(Nc1ccccc1)c1cc(C(=O)NCCN(C)C)cn2c(=O)cc(N3CCOCC3)nc12 (centres undefined) | 35 nM | 2300 nM
3 | Cc1cc(C(C)Nc2ccccc2-c2nnn[nH]2)c2nc(N3CCOCC3)cc(=O)n2c1 (centres undefined) | 51 nM | 1410 nM
4 | Cc1cc(C(C)Nc2ccccc2S(=O)(=O)O)c2nc(N3CCOCC3)cc(=O)n2c1 (centres undefined) | 30 nM | 330 nM
5 | Cc1cc(C(C)Nc2cc(Cl)ccc2C(=O)O)c2nc(N3CCOCC3)cc(=O)n2c1 (centres undefined) | 31 nM | 1460 nM
6 | Cc1cc(C(C)Nc2cccc(C(=O)O)c2)c2nc(N3CCOCC3)cc(=O)n2c1 (centres undefined) | 4800 nM | 12100 nM
7 | COc1ccccc1OC(C)c1cc(C(=O)N(C)CCO)cn2c(=O)cc(N3CCOCC3)nc12 (centres undefined) | 400 nM | 2500 nM
8 | CC(Nc1ccccc1)c1cc(C(=O)NCCN2CCNCC2)cn2c(=O)cc(N3CCOCC3)nc12 (centres undefined) | 76 nM | 4800 nM
9 | CC(Nc1ccccc1)c1cc(C(=O)N(C)CC(=O)O)cn2c(=O)cc(N3CCOCC3)nc12 (centres undefined) | 340 nM | 3800 nM
10 | CC(Nc1ccccc1)c1cc(C(=O)N2CCOCC2)cn2c(=O)cc(N3CCOCC3)nc12 (centres undefined) | 140 nM | 6900 nM
11 | CC(Nc1ccccc1)c1cc(C(=O)N(C)CCO)cn2c(=O)cc(N3CCOCC3)nc12 (centres undefined) | 58 nM | 2200 nM
12 | CC(Nc1ccccc1)c1cc(C(=O)O)cn2c(=O)cc(N3CCOCC3)nc12 (centres undefined) | 59 nM | 610 nM

The remaining lines, values ahead:

Row | IC50 [1] | IC50 [2] | SMILES
13 | 46 nM | 600 nM | Cc1c(F)cccc1OC(C)c1cc(C(=O)N(C)CCO)cn2c(=O)cc(N3CCOCC3)nc12 (centres undefined)
14 | 200 nM |  | Cc1cc(OC(C)c2cc(C(=O)N(C)CCO)cn3c(=O)cc(N4CCOCC4)nc23)ccc1F (centres undefined)
15 | 47 nM | 4500 nM | COc1cccc(OC(C)c2cc(C(=O)N(C)CCO)cn3c(=O)cc(N4CCOCC4)nc23)c1 (centres undefined)
16 | 1700 nM | 8200 nM | CC(Oc1cccc(C#N)c1)c1cc(C(=O)N(C)CCO)cn2c(=O)cc(N3CCOCC3)nc12 (centres undefined)
17 | 660 nM | 3400 nM | CC(Oc1ccccc1F)c1cc(C(=O)N(C)CCO)cn2c(=O)cc(N3CCOCC3)nc12 (centres undefined)
18 | 180 nM | 9400 nM | Cc1cccc(OC(C)c2cc(C(=O)N(C)CCO)cn3c(=O)cc(N4CCOCC4)nc23)c1 (centres undefined)
19 | 110 nM | 1300 nM | Cc1ccccc1OC(C)c1cc(C(=O)N(C)CCO)cn2c(=O)cc(N3CCOCC3)nc12 (centres undefined)
20 | 190 nM | 10100 nM | CC(Oc1ccccc1)c1cc(C(=O)N(C)CCO)cn2c(=O)cc(N3CCOCC3)nc12 (centres undefined)
